Series [1] concerns A2780 cancer cell line. The experiment in a line: Cytotoxicity: inhibitory growth activity, sulforhodamine B assay. It is filed as cell-based. The following applies: 24 hours drug exposure, 96 hours recovery, SRB. As for the experimental part: (§1) Compounds were tested for inhibitory growth activity against the A2780 and A549 cancer cell lines. Each drug was tested for activity at six different concentrations (100 μM, 50 μM, 10 μM, 5 μM, 1 μM and 0.1 μM) and each concentration was tested in triplicate, relative to a cisplatin control.
The A2780 cancer cell line was maintained by growing the cells in RPMI media supplemented with 5% fetal bovine serum, 1% penicillin/streptomycin and 2 mM L-glutamine. The cells were split when approximately 70-80% confluence were reached using 0.25% trypsin/EDTA. The cells were kept incubated at 37° C., 5% CO2, high humidity. The A549 cancer cell line was maintained by growing the cells in DMEM media supplemented with 10% fetal bovine serum, 1% penicillin/streptomycin and 2 mM L-glutamine. The cells were split when approximately 70-80% confluence were reached using 0.25% trypsin/EDTA. The cells were kept incubated at 37° C., 5% CO2, high humidity.
A2780 cancer cells were plated out at 50000 cells/well (±10%) on day one. A549 cancer cells were plated out at 20000 cells/well (±10%) on day two. On day three the test compound was dissolved in DMSO to give a stock solution of 20 mM and serial dilutions were carried out in DMSO to give concentrations of drug in DMSO of 10 mM, 2 mM, 1 mM, 0.2 mM and 0.02 mM. These were added to the wells to give the six testing concentrations and a final concentration of DMSO as 0.5% (v/v) with a total volume of drugs and media to be 200 μl. The cells were exposed to the drug for 24 hours then, after drug removal, fresh media was given and the cells were incubated for 96 hours recovery time. The remaining biomass was estimated by the sulforhodamine B assay. The cells were then fixed using 50 μl 50% (w/v) TCA and incubated at 4° C. for one hour. The biomass was stained with 100 μl 0.4% (w/v) sulforhodamine B in 1% acetic acid. The dye was solubilised with Tris Buffer and the absorbance was read using a BMG Fluostar microplate reader at 595 nm. A baseline correction at 690 nm was subtracted from the values. The absorbance for 100% cell survival was based on the average absorbance for the 0.1 μM dosed triplicate for that drug. IC50 values were calculated using XL-Fit version 4.0.

Series [2] has as its system A549 cancer cell line. The series is described as above. To be noted: 24 hours drug exposure, 96 hours recovery, SRB. The format is cell-based. As for the experimental part: as §1
The A2780 cancer cell line was maintained by growing the cells in RPMI media supplemented with 5% fetal bovine serum, 1% penicillin/streptomycin and 2 mM L-glutamine. […] The cells were kept incubated at 37° C., 5% CO2, high humidity. The A549 cancer cell line was maintained by growing the cells in DMEM media supplemented with 10% fetal bovine serum, 1% penicillin/streptomycin and 2 mM L-glutamine. […] The cells were kept incubated at 37° C., 5% CO2, high humidity.
A2780 cancer cells were plated out at 50000 cells/well (±10%) on day one. A549 cancer cells were plated out at 20000 cells/well (±10%) on day two. […] The remaining biomass was estimated by the sulforhodamine B assay. The cells were then fixed using 50 μl 50% (w/v) TCA and incubated at 4° C. for one hour. The biomass was stained with 100 μl 0.4% (w/v) sulforhodamine B in 1% acetic acid. The dye was solubilised with Tris Buffer and the absorbance was read using a BMG Fluostar microplate reader at 595 nm. A baseline correction at 690 nm was subtracted from the values. The absorbance for 100% cell survival was based on the average absorbance for the 0.1 μM dosed triplicate for that drug. IC50 values were calculated using XL-Fit version 4.0.

The nature of series [3]: Aqueous solution chemistry followed by 1H NMR (hydrolysis, arene loss). The format is physicochemical. As for the experimental part: NMR-Spectroscopy: All ^1H NMR experiments for characterization of synthesized compounds were recorded on either a Bruker DMX 500 MHz spectrometer equipped with TBI [^1H, ^13C, ^15N] probe-head, equipped with z-field gradients or a Bruker DPX 360 MHz spectrometer. The proton signals were calibrated against the residual solvent peak, δ 7.27 (chloroform), 2.07 (acetone) and 2.52 (DMSO). The 2D ^1H-TOCSY and 2D ^1H COSY experiments for characterization were run on a Bruker DMX 500 MHz spectrometer. 2D-^1H ROESY experiment for characterization was recorded on a Bruker AVA […] spectrometer equipped with a with a TXI [^1H, ^13C, ^15N] probe-head, equipped with z-field gradients. All pH titration experiments were recorded on a Bruker AVA 600 MHz spectrometer where dioxan was added as an internal reference (δ 3.75, in 100% D2O). The water was suppressed using a 1D Double Pulse Field Gradient Spin Echo (DPFGSE) experiment. The aqueous solution behaviour was recorded on a Bruker bio 600 MHz spectrometer equipped with a cryoprobe and the water was suppressed using a 1D Double Pulse Field Gradient Spin Echo (DPFGSE) experiment. The chemical shifts were measured relative to dioxin (internal reference δ 3.75, in 90% H2O/10% D2O). All spectra were recorded using 5 mm quartz tubes at 298 K unless stated otherwise. All NMR data were processed using Xwin-NMR (Version 2.0 Bruker UK Ltd).
The complex was dissolved in H2O/D2O, the pH was taken, and NMR spectra were recorded at uniform time intervals at a fixed temperature using a multi-zg kinetic experiment program. After acquisition, Electrospray Mass Spectrometry was performed on a portion of the NMR solution.
The solution chemistry was followed by ^1H NMR unless stated otherwise.

The nature of series [4]: Solution chemistry in phosphate buffer mimicking cell test conditions (NMR, ESI-MS). It is filed as physicochemical. To be noted: 100 μM, 10 mM phosphate buffer, 95% D2O, 5% MeOD, 310 K, 24 h; pH* 7.35 (8), 7.40 (10), 7.31 (13), 7.38 (21). As for the experimental part: Solutions of four ruthenium complexes (8, 10, 13 and 21) in MeOD were diluted down in 10 mM phosphate buffer/D2O to give a final concentration of 100 μM ruthenium (95% D2O, 5% MeOD) and NMR spectra were recorded at 310 K initially (time ca. 15 minutes) and after 24 h. The pH* of the samples was 7.35 (8), 7.40 (10), 7.31 (13) and 7.38 (21), The samples were kept in the water bath at 310 K between acquisitions. After 24 hour, ESI-MS was performed on the samples. These conditions were chosen to mimic pH, concentration, exposure time and temperature for the biological cell tests.

Series [5] in a line: Reactions with ascorbate (UV-Vis, 1H NMR). It is filed as physicochemical. The following applies: 5 equivalents ascorbate, 10 mM phosphate buffer, pH 7.35 (UV-Vis) / 7.30 (NMR), 310K.
For series [6], the system named is A549 cancer cells. The experiment in a line: Detection of reactive oxygen species (ROS) with DCFH-DA probe. The format is cell-based. The following applies: 25 μM, 0.5% DMSO, 6.5 hours, 310 K, cells pre-loaded with DCFH-DA; FIG. 4. As for the experimental part: The generation of ROS can be detected inside living cells using the molecular probe DCFH-DA. This probe crosses the membrane into cells where it is hydrolyzed to DCFH. In the presence of ROS it is oxidized to highly fluorescent DCF. […] Cells were loaded with DCFH-DA (10 μM, 0.5% DMSO (v/v)) and were incubated at 310 K, 5% CO2, high humidity for 30 minutes. The probe was removed and the cells were washed twice with PBS (200 μL). The cells were then kept in Hanks Balanced Salt Solution (HBSS) and the ruthenium compounds were diluted with HBSS and added to the wells (25 μM, 0.5% DMSO (v/v)). Hydrogen peroxide (25 μM) was added as a positive control and the fluorescence was read every 200 seconds over a period of 6.5 hours at 310 K by excitation at 480±10 nm and emission at 538±15 nm on a BMG fluostar plate reader. A time course experiment was performed to follow any increase in fluorescence over 6.5 hours after addition of ruthenium compounds to cells pre-loaded with DFCH-DA.

For series [7], the system named is A549 cancer cell line. The experiment in a line: Cell viability after increasing thiol levels (NAC pre-incubation). It is filed as cell-based. To be noted: 5 μM drug, 24 hours incubation, 96 hour recovery, 5 mM NAC for two hours; FIG. 5. As for the experimental part:
Cell viability was determined in the A549 cancer cell line after cells were pre-incubated with 5 mM NAC to increase intracellular thiol levels. […] This implies that ROS are involved in cell death.

Broadly, the IC50 is the concentration at which inhibition is half-maximal.

With `CN(C)c1ccc(N=Nc2ccccn2)cc1.Cc1ccc(C(C)C)cc1.F[P-](F)(F)(F)(F)F.[I-].[Ru+2]` [Compound 8, [Ru(p-cymene)(Azpy-NMe2)I]PF6], the IC50 in series [1] was found to be 5 µM; in series [2] it was 3 µM. Moreover, the “change of complex in solution” value is on record as “No change occurred” in series [3] (100 μM, 99.5% D2O, 0.5% DMSO, 115 mM NaCl, pH=7.5, 37° C., over 24 hours) and “No change occurred” in series [3] (saturated solution (filtered), 90% H2O/10% D2O, pH=7.2, 25° C. over 24 hours). For the same compound, in series [4], the hydrolysis result was “no hydrolysis had occurred”. Also, the reduction by ascorbate entry in series [5] is “a one electron reduction was occurring”. For the same compound, the “change in DCF fluorescence over time (ROS generation)” value in series [6] is recorded as “increase in the DCF fluorescence”. Besides, the “cell survival of cells pre-treated with NAC versus untreated cells” value in series [7] was “greater cell survival”.

These data come from patent US20090318402A1, “RUTHENIUM (II) COMPOUNDS” (The University Court of the University of Edinburg, priority 2006, published 2009).
